# Reference: patent US20050004011A1, “Compositions and methods for treating bacterial infections with protein-dalbavancin complexes” (priority 2002, published 2005)
# Where “and” joins values, the source holds several entries; their conditions need not be identical. Equal entries are not always repeated. Where two headings read alike, the source gives them in different places.
# Key:
# [1] = Phase II SSTI trial: dalbavancin plasma concentrations; assay type: in vivo, human; settings: for Mean dalbavancin plasma concentration: two-dose regimen
# [2] = test system: Gram-positive pathogen identified at baseline; assay: Phase II SSTI trial: microbiological response; assay type: in vivo, human; settings: for Success rate by pathogen: MITT at FU; for Microbiologic success rate: MITT population; for Eradication/presumed eradication rate, all organisms / S. aureus eradication rate: microbiologically-evaluable population at FU
# Experimental: (§1) This randomized, controlled study evaluated the safety and efficacy of two dose regimens of dalbavancin.
# (§2) There were 62 patients randomized into the study; all received at least one dose of study medication. Four study populations were evaluated for safety and efficacy and were defined as follows: The intent-to-treat (ITT) population included all patients who received at least one dose of study drug (all randomized study subjects).
# Microbiological outcome, a secondary efficacy variable, was assessed in the subpopulation of patients who had microbiologically documented SSTI (i.e., at least one identified baseline pathogen). A microbiologic response was assessed for each Gram-positive pathogen identified at baseline (i.e., eradication, presumed eradication, persistence, presumed persistence). For patients for whom follow-up cultures were not performed, the microbiologic responses for baseline pathogens were presumed on the basis of the clinical response. Microbiologic response by patient at the EOT and FU visits was graded as success (i.e., all Gram-positive organisms eradicated or presumed eradicated) or failure (i.e., at least one Gram-positive organism persisted or presumed to have persisted, multiple pathogens with partial eradication). At both the EOT and FU visits, colonization and superinfection were assessed. At the FU visit, a patient's bacteriological response could also include recurrence.
# human albumin = human albumin (Homo sapiens, UniProt P02768); assay: Protein binding by isothermal titration microcalorimetry
# Experimental: Integrated heat effects, after correction for heats of dilution, were analyzed by non-linear regression using a simple single-site binding model with the standard Microcal ORIGIN software package. Raw data (μcal/sec) for each injection were integrated to give the total heat effect per addition, then divided by amount of injectant to give kcal/mole of injectant. The same integration was applied for control dilution effects, and this was subtracted from the actual titration data. This provided a differential of the binding curve in which the extent of binding is proportional to the total heat liberated (or absorbed). This was then analyzed by non-linear regression methods in terms of various standard binding models.
# [3] = test system: N,N′-diacetyl-Lys-D-Ala-D-Ala; assay: ITC of binding to tri-peptide, with and without HSA
# [4] = test system: Miscellaneous Streptococcus and nontypeable strains; assay: Dalbavancin MIC of baseline isolates; assay type: cell-based
# Streptococcus pyogenes = assay: Dalbavancin MIC of baseline isolates; assay type: cell-based
# HSA = HSA (Homo sapiens, UniProt P02768); assay: MALDI-TOF mass spectrometry of protein-dalbavancin complexes; assay type: binding; settings: very high dalbavancin:protein ratios (1:2, 1:10)
# Experimental: The samples were prepared for analysis using the dried droplet technique. Spectra were obtained on a BRUKER FLEX III, tof mass spectrometer previously tuned and calibrated using standard bovine serum albumin, acquiring and averaging spectra generated by 200 laser shots. Matrix: 9 parts of DHB-9 (2,5-dihydroxy-benzoic acid) saturated in acetonitrile/H2O (50:50), 1 part of sinapinic acid saturated in acetonitrile/H2O (50:50). 0.5 μl of sample solution and 0.5 μl of matrix solution were mixed and placed on the laser target. [00179]
# [5] = Pharmacokinetics and renal excretion in healthy subjects; assay type: in vivo, human
# Experimental: Blood samples were drawn into heparinized tubes and centrifuged. Plasma was separated and stored frozen at −20° C. until time of assay. Plasma and urine samples were assayed for dalbavancin using validated LC/MS/MS methods. […] The peak concentration (Cmax) values were obtained directly from the observed data. The area under the plasma concentration-time curve (AUC) was calculated using the linear trapezoidal rule. Clearance (CL) was computed as dose/AUC. The elimination half life (t1/2) was estimated by linear regression of the log-linear portion of the log concentration versus time curve. Estimates of the volume of distribution (Vz) was calculated using the regression parameters, while the volume of distribution at steady state (Vss) was calculated from the area under the first moment curve (AUMC) multiplied by the dose and divided by AUC. The cumulative amount of dalbavancin excreted in urine was determined as the integrand of the urine excretion rate (AURC). CLR, or renal clearance, was calculated as the ratio: CLR=AURC/AUC.
# [6] = test system: Gram-positive isolates, including MRSA; assay: MIC against Gram-positive isolates / SSTI pathogens; assay type: cell-based; settings: FU assessment
# [7] = test system: skin and soft tissue infections (SSTI); assay: Phase II trial in deep skin and soft tissue infections: clinical response; assay type: in vivo, human
# Experimental: as §1, §2
# The effectiveness of the three treatment regimens was determined by assessing the patients' clinical response and the documented or presumed microbiological responses. The primary efficacy endpoint was clinical response at the follow-up visit for the clinically evaluable population. Clinical response, for both EOT and FU visits, was categorized as success (cure or improvement) or failure (including indeterminate results). Patients classified as successes must not have received additional systemic antibacterial treatment for their infection. Failure was defined as persistence of one or more local or systemic signs and symptoms of SSTI such that treatment with new or additional systemic antibacterial agents was required for the SSTI.
# Rat mass balance study = assay type: in vivo, Sprague-Dawley rats
# Experimental: Mass balance studies were conducted to determine the excretion pattern of dalbavancin following a single intravenous (IV) infusion of dalbavancin in male rats.
# Water and methanol cage washes were also collected.
# [8] = ESI-MS of multimers in solution
# Experimental: Experiments were performed using an Applied Biosystem API III+mass spectrometer equipped with a TurboIonSpray source, a Triple Quadrupole analyzer, operating in positive ion mode.
# The mass spectra were obtained in electrospray positive mode on a Finnigan LCQDeca ion trap instrument previously tuned and calibrated in electrospray mode using Ultramark 1621, caffeine and MRFA (L-metionyl-arginyl-phenilalanyl-arginine).
# The mass spectra were obtained in electrospray positive mode on a Finnigan LCQ^Deca ion trap instrument previous tuned and calibrated in electrospray mode using Ultramark 1621, caffeine and MRFA (L-metionyl-arginyl-phenilalanyl-arginine).
# [9] = Safety assessments in healthy subjects; assay type: in vivo, human; settings: single 1000 mg IV
# Experimental: Adverse events were recorded and assessed for severity and relationship to study drug. Laboratory data (chemistry panel, CBC with differential, urinalysis) were collected and assessed for changes from baseline and out-of-range values. ECG, physical examination, and vital signs were obtained, and changes from baseline were assessed.
# [10] = MITT isolates of standard of care group
# [11] = MITT isolates of two-dose group
# Chain of human albumin (P02768 25-609): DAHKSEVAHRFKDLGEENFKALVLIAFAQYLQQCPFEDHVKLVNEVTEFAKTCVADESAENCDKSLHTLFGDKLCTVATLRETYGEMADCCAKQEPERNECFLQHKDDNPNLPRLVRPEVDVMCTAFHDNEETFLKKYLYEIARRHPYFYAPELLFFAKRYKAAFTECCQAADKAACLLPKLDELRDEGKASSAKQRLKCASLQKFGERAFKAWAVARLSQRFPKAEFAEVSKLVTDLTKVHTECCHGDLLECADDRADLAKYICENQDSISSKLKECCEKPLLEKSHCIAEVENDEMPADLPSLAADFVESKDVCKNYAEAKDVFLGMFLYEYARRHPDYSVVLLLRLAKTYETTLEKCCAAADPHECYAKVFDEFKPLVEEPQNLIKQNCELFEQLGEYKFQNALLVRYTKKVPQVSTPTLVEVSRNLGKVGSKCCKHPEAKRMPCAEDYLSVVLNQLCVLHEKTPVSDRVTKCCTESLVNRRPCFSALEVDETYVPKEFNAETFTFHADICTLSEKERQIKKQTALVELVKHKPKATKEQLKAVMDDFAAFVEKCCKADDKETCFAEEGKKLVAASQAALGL
# Chain of HSA (P02768 25-609): as above
compound,measurement,setting,value
CN[C@H]1C(=O)N[C@@H]2Cc3ccc(cc3)Oc3cc4cc(c3O[C@@H]3O[C@H](C(=O)O)[C@@H](O)[C@H](O)[C@H]3NC(=O)CCCCCCCCC(C)C)Oc3ccc(cc3Cl)[C@@H](O)[C@@H]3NC(=O)[C@H](NC(=O)[C@@H]4NC(=O)[C@@H](NC2=O)c2cc(cc(O)c2Cl)Oc2cc1ccc2O)c1ccc(O)c(c1)-c1c(O[C@H]2O[C@H](CO)[C@@H](O)[C@H](O)[C@@H]2O)cc(O)cc1[C@@H](C(=O)NCCCN(C)C)NC3=O [Dalbavancin],Mean dalbavancin plasma concentration (mean±SD),"[1]; single-dose regimen, Study day 10",25.2 ± 4.8 mg/L
same,Mean dalbavancin plasma concentration,[1]; Study day 8 (prior to the second dose),30.4 ± 8.2 mg/L
same,Mean dalbavancin plasma concentration,[1]; Study day 20,21.2 ± 10.0 mg/L
same,Mean dalbavancin plasma concentration,[1]; Study day 34,9.0 ± 4.4 mg/L
same,Success rate by pathogen,"[2]; All S. aureus, single-dose (1100 mg)",5/13 (38%)
same,Success rate by pathogen,"[2]; All S. aureus, two-dose (1000/500 mg)",9/11 (82%)
same,Microbiologic success rate,"[2]; EOT, single-dose (1100 mg)",5/14 (35.7) %
same,Microbiologic success rate,"[2]; EOT, two-dose (1000/500 mg)",10/13 (76.9) %
same,Microbiologic success rate,"[2]; FU, single-dose (1100 mg)",3/14 (21.4) %
same,Microbiologic success rate,"[2]; FU, two-dose (1000/500 mg)",9/13 (69.2) %
same,Success rate by pathogen,"[2]; Methicillin-sensitive S. aureus, single-dose (1100 mg)",2/7 (29%)
same,Success rate by pathogen,"[2]; Methicillin-sensitive S. aureus, two-dose (1000/500 mg)",5/6 (83%)
same,Success rate by pathogen,"[2]; Miscellaneous streptococcus species, single-dose (1100 mg)",2/3 (67%)
same,Success rate by pathogen,"[2]; Miscellaneous streptococcus species, two-dose (1000/500 mg)",4/4 (100%)
same,Success rate by pathogen,"[2]; Total organisms, single-dose (1100 mg)",7/16 (43.8%)
same,Success rate by pathogen,"[2]; Total organisms, two-dose (1000/500 mg)",14/16 (87.5%)
same,"Eradication/presumed eradication rate, all organisms",[2]; single-dose,58%
same,S. aureus eradication rate,[2]; single-dose,50%
same,"Eradication/presumed eradication rate, all organisms",[2]; two-dose,92%
same,S. aureus eradication rate,[2]; two-dose,90%
same,binding stoichiometry modeling (drug:protein),human albumin,two dalbavancin molecules are bound to one molecule of protein
same,Calculated percent binding,"human albumin; antibiotic 500 μM, human serum albumin 6×10^−4 M",98.0%
same,"N (binding stoichiometry, protein to dalbavancin)",human albumin; in all cases (all proteins),< 1
same,weaker binding affinity than in the absence of HSA,"[3]; 25° C., plateau at high HSA",10-12 ×
same,Kass,"[3]; T 25 ° C., [HSA] 104 μM",34900 M⁻¹
same,Kass,"[3]; T 25 ° C., [HSA] 288 μM",31000 M⁻¹
same,Kass,"[3]; T 25 ° C., [HSA] 430 μM",28400 M⁻¹
same,Kass,"[3]; T 37 ° C., [HSA] 0 μM",130000 M⁻¹ and 110000 M⁻¹
same,Kass,"[3]; T 37 ° C., [HSA] 516 μM",9568 M⁻¹
same,Kd,"[3]; read-out: Kdiss (preliminary experiments), absence of serum proteins, depending on temperature",1 to 10 µM
same,Kd,"[3]; read-out: Kdiss, T 25 ° C., [HSA] 288 μM",32.3 µM
same,Kd,"[3]; read-out: Kdiss, T 37 ° C., [HSA] 0 μM",7.69 µM and 9.09 µM
same,Kd,"[3]; read-out: Kdiss, T 37 ° C., [HSA] 516 μM",105 µM
same,Dalbavancin MIC,[4]; MITT isolates of single-dose group,(0.016) mg/L
same,Dalbavancin MIC,[4]; [10],(0.016) mg/L
same,Dalbavancin MIC,[4]; [11],(0.016) mg/L
same,Dalbavancin MIC,Streptococcus pyogenes; [10],(0.016) mg/L
same,Dalbavancin MIC,Streptococcus pyogenes; [11],(0.016) mg/L
same,complex with HSA observed by MALDI-TOF,HSA,2 molecules of dalbavancin per protein molecule
same,peak concentration in man,"[5]; human, in vivo",~165 µM
same,CLR,"[5]; single 1000 mg IV, mean",0.018 L/h
same,VZ,"[5]; single 1000 mg IV, mean",16.0 L
same,plasma concentration maintained for at least seven days,[5]; single intravenous infusion of 1000 mg,above 45 mg/l
same,Change in dalbavancin MIC of isolates that persisted,[6],no change
same,Clinical success rate,"[7]; MITT at FU, patients with MRSA, single-dose",50%
same,Clinical success rate,"[7]; MITT at FU, patients with MRSA, two-dose",80%
same,Clinical success rate,"[7]; subanalysis: deep or complicated SSTI at baseline, single-dose",58.3%
same,Clinical success rate,"[7]; subanalysis: deep or complicated SSTI at baseline, two-dose",93.8%
same,dose remaining in the carcass,Rat mass balance study; 70 days post dose,4.5%
same,plasma t1/2,Rat mass balance study; rat,approximately 1 week
same,share of excreted radioactivity eliminated in feces,"Rat mass balance study; single IV 20 mg/kg, male rats",⅓
same,share of excreted radioactivity eliminated in urine,"Rat mass balance study; single IV 20 mg/kg, male rats",⅔
same,administered radioactivity eliminated in urine and feces,Rat mass balance study; within the first week,Approximately half
same,Multimers in solution (ESI-MS),[8],presence of dalbavancin multimers
same,population ratio of multimer to monomer vs concentration,"[8]; 20, 40, 60, and 80 μg/mL",increases with increasing concentration
same,population ratio of multimer to monomer vs ionic strength,"[8]; ammonium formate 5, 50, 100 mM, pH 5, increase in buffer concentration",decrease
same,population ratio of multimer to monomer vs pH,[8]; pH 2.5 to 5.5,increases with increasing pH
same,Subject deaths or serious adverse events,[9],No subject deaths or serious adverse events
same,Tolerability,[9],well-tolerated
same,Volunteers reporting AEs possibly related to study medication,[9]; six subjects,Three
